Data from PMC3996911 (Molecular cell, 2014).

Tests used:
PPX = target: T1, PPX (Escherichia coli, UniProt P0AFL6); assay: specific activity after incubation with N-chlorotaurine; type: biochemical; conditions: covalent (oxidation of Cys169 and, to a lesser extent, Cys85)
T1 sequence (P0AFL6 2-513): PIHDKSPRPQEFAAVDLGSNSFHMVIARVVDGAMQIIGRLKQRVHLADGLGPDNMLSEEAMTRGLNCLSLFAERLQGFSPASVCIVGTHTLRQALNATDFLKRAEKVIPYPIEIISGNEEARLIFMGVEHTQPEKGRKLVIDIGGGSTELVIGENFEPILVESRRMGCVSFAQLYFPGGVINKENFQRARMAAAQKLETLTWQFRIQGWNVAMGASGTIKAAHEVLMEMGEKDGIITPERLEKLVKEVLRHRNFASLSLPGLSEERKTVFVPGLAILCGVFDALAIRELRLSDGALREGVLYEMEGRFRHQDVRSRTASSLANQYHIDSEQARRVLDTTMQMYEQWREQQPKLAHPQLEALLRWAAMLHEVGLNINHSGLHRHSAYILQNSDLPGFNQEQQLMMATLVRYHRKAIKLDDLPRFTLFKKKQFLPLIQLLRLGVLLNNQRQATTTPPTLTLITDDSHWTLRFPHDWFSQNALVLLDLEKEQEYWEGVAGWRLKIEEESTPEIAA

PPK = PPK (Escherichia coli, UniProt P0A7B1)
Sequence of PPK (P0A7B1 2-688): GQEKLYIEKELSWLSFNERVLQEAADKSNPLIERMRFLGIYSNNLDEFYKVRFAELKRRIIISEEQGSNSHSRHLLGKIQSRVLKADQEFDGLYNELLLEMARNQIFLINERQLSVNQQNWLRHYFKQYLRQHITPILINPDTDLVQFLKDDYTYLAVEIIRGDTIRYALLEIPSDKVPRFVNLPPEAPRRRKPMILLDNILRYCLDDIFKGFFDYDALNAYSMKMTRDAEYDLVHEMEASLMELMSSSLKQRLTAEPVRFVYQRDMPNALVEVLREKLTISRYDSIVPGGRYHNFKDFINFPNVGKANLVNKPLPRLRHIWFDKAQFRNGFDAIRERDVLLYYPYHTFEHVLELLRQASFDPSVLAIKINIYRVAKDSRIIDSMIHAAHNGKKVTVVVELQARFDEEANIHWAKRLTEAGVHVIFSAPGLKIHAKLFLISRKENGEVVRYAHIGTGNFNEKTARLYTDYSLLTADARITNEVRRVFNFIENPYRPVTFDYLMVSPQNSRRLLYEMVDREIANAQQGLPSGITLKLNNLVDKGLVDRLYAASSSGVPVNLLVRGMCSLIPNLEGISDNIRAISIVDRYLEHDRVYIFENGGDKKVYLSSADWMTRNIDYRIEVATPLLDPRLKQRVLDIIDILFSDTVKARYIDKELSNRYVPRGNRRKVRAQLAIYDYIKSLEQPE

Row | Structure (SMILES) | specific activity after incubation with N-chlorotaurine (PPX) | specific activity, forward reaction (polyP synthesis) (PPK)
1 | O=S(=O)(O)CCNCl [N-chlorotaurine] | Purified PPX proved to be highly sensitive to inactivation by N-chlorotaurine | –
2 | Nc1ncnc2c1ncn2[C@@H]1O[C@H](COP(=O)(O)OP(=O)(O)OP(=O)(O)O)[C@@H](O)[C@H]1O [ATP] | – | Specific activity of PPK’s forward and reverse reactions (see Figure 1C)
